Laboratory results as given in patent US20250034116A1, “1,4-DIHETEROCYCLIC SUBSTITUTED AROMATIC RING OR AROMATIC HETEROCYCLIC COMPOUND AND USE THEREOF” (BeBetter Med Inc., priority 2022, published 2025).

Experiments:
[1] = system: CYP enzymes in human liver microsomes (HLM); experiment: Inhibition of 20-HETE production in human liver microsomes (HLM); assay type: biochemical
Description: (§1) Experimental principle: The inhibitory activity of 20-HETE production is evaluated by testing the inhibitory effects of the compound on human liver microsomes (HLM), rat liver microsomes (RLM), mouse liver microsomes (MLM), or […] CYP4 subtype enzymes (CYP4F2). This assay employs HLM, RLM, or MLM along with recombinant CYP4F2 (rCYP4F2) and recombinant CYP4A11 (rCYP4A11), which are […] CYP4 subtype enzymes, to detect the effects of the test compound at different concentrations on the metabolic rate of enzyme-specific substrates, to determine the inhibitory effects of the test compound on CYP enzymes in HLM, RLM, or MLM.
(§2) Experimental methods: Dissolve the test compound in DMSO, and subsequently dilute it with an acetonitrile and DMSO mixture (3:1). Add 2 μl of varying concentrations of the test compound and 100 μl of potassium phosphate buffer containing either liver microsomes or recombinant enzymes to a 96-well plate. After mixing well, transfer 30 μl to another well (in duplicate), add 15 μl of 400 μM substrate solution, and mix well again. Preheat at 37° C. for 10 minutes, and then add 15 μl of 6 mM NADPH and incubate at 37° C. for 25 minutes. After 25 minutes, add 160 μl of acetonitrile solution (containing 0.1 μg/ml internal standard) to stop the reaction. Mix well, centrifuge at 3500 g for 15 minutes, and then analyze the supernatant using LC-MS/MS.
(§3) Plot the compound concentration on the x-axis and the inhibition rate on the y-axis to draw the curve. Use GraphPad Prism 5 software to fit the curve and calculate the IC50. The formula is Y=Bottom+(Top−Bottom)/(1+10^((Log IC50−X)×HillSlope)). X represents the logarithmic concentration of the inhibitor, and Y represents the relative enzyme activity at a given inhibitor concentration (relative to the condition without the inhibitor).
(§4) Calculate the inhibition percentages at concentrations of 1000 nM, 500 nM, or 100 nM as well as the half-maximal inhibitory concentration (IC50) of the test compound from the above experiment.

[2] = system: CYP enzymes in rat liver microsomes (RLM); experiment: Inhibition of 20-HETE production in rat liver microsomes (RLM); assay type: biochemical
Description: as §1, §2, §3, §4

Row | Compound | HLM (% inh @ 500 nM) [1] [%] | RLM (% inh @ 500 nM) [2] [%] | IC50 [1] [nM] | IC50 [2] [nM]
1 | CC(=O)NCC1CCN(c2ccc(-c3cn[nH]c3)cc2)CC1 [Compound 43, N-((1-(4-(1H-pyrazol-4-yl)phenyl)piperidin-4-yl)methyl) acetamide] | 61.30 | 31.42 |  | 
2 | CCCCCCC(=O)NCC1CCN(c2ccc(-c3cn[nH]c3)cc2)CC1 [Compound 44, N-((1-(4-(1H-pyrazol-4-yl)phenyl)piperidin-4-yl)methyl) heptylamide] | 85.05 |  | 25.2 | 33.8
3 | O=C(CCCCCO)NCC1CCN(c2ccc(-c3cn[nH]c3)cc2)CC1 [Compound 45, N-((1-(4-(1H-pyrazol-4-yl)phenyl)piperidin-4-yl)methyl)-6-hydroxyhexanamide] | 57.83 | 26.43 |  | 
4 | O=C(NCC1CCN(c2ccc(-c3cn[nH]c3)cc2)CC1)C1CCCC1 [Compound 46, N-((1-(4-(1H-pyrazol-4-yl)phenyl)piperidin-4-yl)methyl)cyclopentanecarboxamide] |  | 35.54 | 43.2 | 942
5 | O=C1CCCN1CCC1CCN(c2ccc(-c3cn[nH]c3)cc2)CC1 [Compound 48, 1-(2-(1-(4-(1H-pyrazol-4-yl)phenyl)piperidin-4-yl)ethyl)pyrrolidin-2-one] | 73.42 | 39.97 |  | 
6 | O=C(C1CCN(c2ccc(-c3cn[nH]c3)cc2)CC1)N1CCOCC1 [Compound 50, (1-(4-(1H-pyrazol-4-yl)phenyl)piperidin-4-yl)(morpholinyl) methanone] | 57.59 | 14.48 |  | 
7 | O=C(C1CCN(c2ccc(-c3cn[nH]c3)cc2)CC1)N1CCCCC1 [Compound 54, (1-(4-(1H-pyrazol-4-yl)phenyl)piperidin-4-yl)(piperidin-1-yl) methanone] | 81.26 | 32.02 |  | 995
8 | O=C(NC1CCCC1)C1CCN(c2ccc(-c3cn[nH]c3)cc2)CC1 [Compound 55, 1-(4-(1H-pyrazol-4-yl)phenyl)-N-cyclopentylpiperidine-4-carboxamide] | 62.73 | 21.92 |  | 
9 | O=C(Nc1ccc(F)cc1)C1CCN(c2ccc(-c3cn[nH]c3)cc2)CC1 [Compound 61, 1-(4-(1H-pyrazol-4-yl)phenyl)-N-(4-fluorophenyl)piperidine-4-carboxamide] | 85.27 |  | 17.6 | 60.5
10 | O=C(C1CCN(c2ccc(-c3cn[nH]c3)cc2)CC1)N1CC2CCC1C2 (centres unmarked) [Compound 65, (1-(4-(1H-pyrazol-4-yl)phenyl)piperidin-4-yl)(2-azabicyclo[2.2.1]heptane-2-yl) methanone] | 52.63 | 2.30 |  | 
11 | O=C(C1CCN(c2ccc(-c3cn[nH]c3)cc2)CC1)N1CC2(CCC2)C1 [Compound 67, (1-(4-(1H-pyrazol-4-yl)phenyl)piperidin-4-yl)(2-azaspiro[3.3]heptane-2-yl) methanone] | 55.57 | 30.84 |  | 
12 | O=C(NC1CCN(c2ccc(-c3cn[nH]c3)cc2)CC1)C1CCCC1 [Compound 69, N-(1-(4-(1H-pyrazol-4-yl)phenyl)piperidin-4-yl)cyclopentanecarboxamide] | 76.97 | 43.82 |  | 
13 | O=C1CCCN1C1CCN(c2ccc(-c3cn[nH]c3)cc2)CC1 [Compound 73, 1-(1-(4-(1H-pyrazol-4-yl)phenyl)piperidin-4-yl) pyrrolidin-2-one] | 65.78 | 29.56 |  | 
14 | O=C1CCCN1CC1CCN(c2ccc(-c3cc[nH]n3)cc2F)CC1 [Compound 76, 1-((1-(2-fluoro-4-(1H-pyrazol-3-yl)phenyl)piperidin-4-yl)methyl)pyrrolidin-2-one] | 80.70 | 40.73 |  | 
15 | O=C1CCCN1CC1CCN(c2ccc(-c3cc[nH]n3)c(F)c2F)CC1 [Compound 77, 1-((1-(2,3-difluoro-4-(1H-pyrazol-3-yl)phenyl)piperidin-4-yl)methyl)pyrrolidin-2-one] | 86.12 | 62.98 |  | 
16 | O=C(N1CCCCC1)N1CCN(c2ccc(-c3cn[nH]c3)c(F)c2F)CC1 [Compound 88, (4-(2,3-difluoro-4-(1H-pyrazol-4-yl)phenyl)piperazin-1-yl)(piperidin-1-yl) methanone] | 78.05 | 68.94 |  | 
17 | O=C(NC1CCCC1)N1CCN(c2ccc(-c3cn[nH]c3)c(F)c2F)CC1 [Compound 89, N-cyclopentyl-4-(2,3-difluoro-4-(1H-pyrazol-4-yl)phenyl)piperazine-1-carboxamide] | 94.11 | 55.76 |  | 
18 | O=C(NCC1CCCC1)N1CCN(c2ccc(-c3cn[nH]c3)c(F)c2F)CC1 [Compound 92, N-(cyclopentylmethyl)-4-(2,3-difluoro-4-(1H-pyrazol-4-yl)phenyl)piperazine-1-carboxamide] | 94.83 | 77.48 | 26.4 | 
19 | O=C(NCc1ccccc1)N1CCN(c2ccc(-c3cn[nH]c3)c(F)c2F)CC1 [Compound 94, N-benzyl-4-(2,3-difluoro-4-(1H-pyrazol-4-yl)phenyl)piperazine-1-carboxamide] | 92.79 | 73.06 |  | 148
20 | O=C(NCc1ccccc1)C1CCN(c2ccc(-c3cn[nH]c3)c(F)c2F)CC1 [Compound 95, N-benzyl-1-(2,3-difluoro-4-(1H-pyrazol-4-yl)phenyl)piperidine-4-carboxamide] | 94.96 | 61.73 | 19.4 | 341
21 | O=C(C1CCCCC1)N1CCC(c2ccc(-c3cn[nH]c3)c(F)c2F)CC1 [Compound 97, cyclohexyl(4-(2,3-difluoro-4-(1H-pyrazol-4-yl)phenyl)piperidin-1-yl) methanone] | 95.80 |  | 25.6 | 25.4
22 | O=C(C1CCCC1)N1CCC(c2c(F)cc(-c3cn[nH]c3)cc2F)CC1 [Compound 99, cyclopentyl(4-(2,6-difluoro-4-(1H-pyrazol-4-yl)phenyl)piperidin-1-yl) methanone] | 96.13 | 74.05 |  | 
23 | O=C(C1CCC(F)(F)CC1)N1CCC(c2ccc(-c3cn[nH]c3)c(F)c2F)CC1 [Compound 101, (4-(2,3-difluoro-4-(1H-pyrazol-4-yl)phenyl)piperidin-1-yl)(4,4-difluorocyclohexyl) methanone] | 78.37 | 69.34 |  | 
24 | C[C@H]1CN(C(=O)N2CCCC2)CCN1c1ccc(-c2cn[nH]c2)c(F)c1F [Compound 102, (S)-(4-(2,3-difluoro-4-(1H-pyrazol-4-yl)phenyl)-3-methylpiperazin-1-yl)(pyrrolidin-1-yl) methanone] | 84.23 | 76.10 |  | 
25 | C[C@@H]1CN(C(=O)N2CCCC2)CCN1c1ccc(-c2cn[nH]c2)c(F)c1F [Compound 104, (R)-(4-(2,3-difluoro-4-(1H-pyrazol-4-yl)phenyl)-3-methylpiperazin-1-yl)(pyrrolidin-1-yl) methanone] | 78.18 | 73.19 |  | 
